Test results taken from paper PMC7866087, “Evaluation of Computationally Designed Peptides against TWEAK, a Cytokine of the Tumour Necrosis Factor Ligand Family” (International Journal of Molecular Sciences, 2021).
Values joined by “and” are separate entries in the source; they are usually repeats but may differ in a detail not shown here. Equal entries are not always repeated. No end group written: not given here.

Tests used:
[1] = tested on: TWEAK-Fn14 signalling pathway, BRV5 cells; assay: Cell-based screening of individual peptides, gene expression microarray in TWEAK-stimulated BRV5 cells; set-up: species or system human; details: 6 h; for BIRC2 mRNA expression (normalized to NARS2) / HSP90B1 mRNA expression (normalized to NARS2) / IL6 mRNA expression (normalized to NARS2) / JUN mRNA expression (normalized to NARS2) / MAP4K4 mRNA expression (normalized to NARS2) / MAPK14 mRNA expression (normalized to NARS2) / NFKB2 mRNA expression (normalized to NARS2) / TNFRSF12A mRNA expression (normalized to NARS2) / TRAF2 mRNA expression (normalized to NARS2): 450 µM
From the text: Pool 1 and 5 were therefore deconstructed to assess the effect of individual peptides and their activity on same cell-based screening. Pools 1 and 5 were composed of peptides 45, 46, 42, 3, 49, 11, and 13; and of peptides 1, 9, 30, 35, 41, 43, 7, and 14, respectively. As before, and shown in Figure 4B, the level of expression of probe genes on TWEAK-stimulated (T) BRV5 cells is overall higher than on non-stimulated (NT) one. […] The structural model of peptides 43, 30, 35 and 49 bound to TWEAK can be seen in Figure 5 and Supplementary Materials Figures S4–S6, respectively.
Three different cell lines were used in this study: BRV5, MDA-MB 435 (435-P), and HT29. The BRV5 is a highly metastatic brain cell line, obtained in one of our laboratories by primary culture from a brain of a nude mouse inoculated with human 435-Br1 brain metastatic cells, as previously described and used as a model to test the peptides in cell cultures. […] The triple negative 435-P cell line is a useful human breast cancer model that expresses both epithelial and melanocytic markers, and was included as the parental cell from which 435-Br1 metastatic variant was initially originated (both cell lines kindly provided by Dr Fabra at IDIBELL Institute, Hospitalet de Llobregat, Spain). Finally, HT29 human colon carcinoma cells obtained from the European Type Culture Collection (ECACC 91072201) were used as a positive control of TWEAK dependent Fn14 over-expressing cells to evaluate TWEAK-Fn14 axis of brain metastatic variants.
Appropriate cell culture conditions were established as the controls needed in the expression of genes with and without peptides and with and without TWEAK activation, both as pools and individually (see Supplementary Materials Figure S2). The protocol started with the seeding of 125,000 cells/well in 500 µL of culture media supplemented with 10% fetal bovine serum (CM+FBS10%) in 24-well dishes for 24 h before removing FBS (CM-FBS). After overnight starvation in CM-FBS culture, different peptide treatment conditions (at final concentration of 450 µM) were established in the presence or absence of TWEAK (25 ng/mL final concentration) (Peprotech EC, Ltd., London, UK). Some cells were treated with peptides at a single, unique, initial dose (time 0) while other were treated with repeated doses to account for the effect cell-culture degradation. These include a repeated treatment every hour (i.e., […]), every two hours (time 0, 2, and 4) and every three hours (time 0 and 3)—see Supplementary Materials Figure S2 for diagrammatic depiction. At time 6 (after six hours) cells were lysed and RNA extracted for transcriptomic analyses (see next). Cell were culture for six hours as this was the time needed to achieve the highest upregulation of the TWEAK-Fn14 axis upon TWEAK treatment as shown in previous time-course RT-PCR experiments (see Figure 2).
RNA from cells was extracted 6 h after treatments by direct lysis on the well. The RNeasy Micro kit (Qiagen, Hilden, Germany) was used to isolate total RNA from cell lysate following manufacturer’s protocols including an additional step of digestion with DNase I (Qiagen, Hilden, Germany). Total RNA concentration was measured in a NanoDrop 1000 spectrophotometer (Thermo Scientific, Waltham, MA, USA). The RNA extracted from treated and untreated cells (see above) was used as a proxy for gene expression.
The quantitative RT-PCR was performed using Fluidigm Dynamic Array FlexSix array with the specific primers for gene expression (Delta Genes Assays, Wet lab tested on Dynamic Array IFC) designed to RefSeq for detection by pPCR EvaGreen assay (Dynamic Array FlexSix, Fluidigm Corporation). Each Flex Six IFC has a total of six independent partitions. Each partition has a 12 × 12 format (12 assay inlets and 12 sample inlets) and will be run independently as a separate experimental run. […]

[2] = Precipitation in SPR running buffer; type: physicochemical; details: running buffer HBS-EP pH 7.4, 6.25 µM to 800 µM, 25 °C
Experimental: (§1) After chip validation, peptides selected on our cell-based microarray screening were tested.
Binding assays were performed at 25 °C in a Biacore 3000 instrument (GE Healthcare, Uppsala, Sweden) using nitrilotriacetic (NTA) sensor chips (GE Healthcare) and HBS-EP (0.01 M HEPES pH 7.4, 0.15 M NaCl, 3 mM EDTA, 0.005 % v/v Surfactant P20) as running buffer. Histidine-tagged human TWEAK (His6-TWEAK) protein (R&D Systems, Minneapolis, MN, USA) was covalently immobilized on the sensor surface using a capture coupling method. Briefly, the NTA surface was first stabilized by injection of regeneration buffer (20 μL EDTA-containing running buffer at 20 μL/min) followed by Ni^2+ binding to the surface (40 μL of 500 μM NiCl2 in running buffer at 20 μL/min). The carboxymethyl dextran surface was then activated for primary amine coupling by injecting coupling solution (30 μL of a 1:1 N-hydroxysuccinimide (NHS)/1-ethyl-3-[3-(dimethylamino)-propyl]carbodiimide hydrochloride (EDC) mixture at 5 μL/min). […]
Binding experiments using a monoclonal anti-TWEAK antibody (Abcam ref. 199405, Cambridge, UK) were run to ascertain adequate functionalization of the immobilized surface. […] The dissociation phase was monitored for 10 min at the same flow rate and followed by a regeneration step with 10 µL of 18 mM NaOH. […]

human His6-TWEAK protein = target: T1, human His6-TWEAK protein (Homo sapiens, UniProt O43508); assay: SPR binding of peptides to immobilized His6-TWEAK; details: 25 °C, 1:1 Langmuir global fit, representative of at least three independent experiments; for kon: HBS-EP pH 7.4, Biacore 3000, NTA chip, read-out: ka; for Kd: figure 6, HBS-EP pH 7.4, 6.25 µM to 800 µM peptide
T1 construct: purchased R&D Systems
T1 sequence (O43508 97-249 limits assumed): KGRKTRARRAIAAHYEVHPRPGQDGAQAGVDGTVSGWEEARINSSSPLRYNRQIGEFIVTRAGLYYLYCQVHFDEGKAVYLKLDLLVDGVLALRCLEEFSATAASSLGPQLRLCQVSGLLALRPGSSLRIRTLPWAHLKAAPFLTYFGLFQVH
From the text: SPR biosensor interaction analysis, a label-free screening approach, was used for real-time monitoring of the kinetics and affinity of peptide hits to TWEAK previously identified by cell-based screening. Peptides from pools 1 and 5 were selected both as positive (49, 30, 35 and 43) and negative hits (1 and 42). For our purposes, TWEAK was chosen as ligand, while peptides were chosen as analytes and passed across ligand-derivatized surface. Nitrilotriacetic acid-coated sensor chips (NTA chip) and a coupling approach that results in the capture of a His6-protein in a non-random orientation by the His6 epitope prior to direct free amine-based covalent coupling was used for histidine-tagged TWEAK immobilization.
as §1
For each titration, a zero-analyte surface as a control was subtracted from test sensorgram as well as non-specific binding to the blank flow cell without protein; and the chip surface was regenerated in order to remove any remaining analyte. The black curves show the experimental data, while the overlaid red lines represent a global fit of the entire data set to a 1:1 Langmurian interaction model. The fitting process provided both kinetic association and dissociation rate constants (Ka and Kd), as well as equilibrium dissociation constant (KD) values indicated in Figure 6.
Binding assays were performed at 25 °C in a Biacore 3000 instrument (GE Healthcare, Uppsala, Sweden) using nitrilotriacetic (NTA) sensor chips (GE Healthcare) and HBS-EP (0.01 M HEPES pH 7.4, 0.15 M NaCl, 3 mM EDTA, 0.005 % v/v Surfactant P20) as running buffer. Histidine-tagged human TWEAK (His6-TWEAK) protein (R&D Systems, Minneapolis, MN, USA) was covalently immobilized on the sensor surface using a capture coupling method. Briefly, the NTA surface was first stabilized by injection of regeneration buffer (20 μL EDTA-containing running buffer at 20 μL/min) followed by Ni^2+ binding to the surface (40 μL of 500 μM NiCl2 in running buffer at 20 μL/min). The carboxymethyl dextran surface was then activated for primary amine coupling by injecting coupling solution (30 μL of a 1:1 N-hydroxysuccinimide (NHS)/1-ethyl-3-[3-(dimethylamino)-propyl]carbodiimide hydrochloride (EDC) mixture at 5 μL/min). His6-TWEAK protein in pH 7.4 running buffer was then injected over the surface (60 μL of 10 μg/mL His6-TWEAK at 5 μL/min). To block uncoupled primary amines on the sensor surface, ethanolamine was passed over the surface (35 μL 1M ethanolamine at 5 μL/min). Ligand surfaces were finally conditioned with a 20 µL injection of regeneration solution containing 350 mM EDTA at 20 μL/min. Immobilization levels ranged from 1500 to 7000 resonance units (RUimmob) to test different ligand densities. A blank flow cell on the chip was created by simple injection of 20 μL of regeneration buffer injected over the sensor surface.
Binding experiments using a monoclonal anti-TWEAK antibody (Abcam ref. 199405, Cambridge, UK) were run to ascertain adequate functionalization of the immobilized surface. Selected synthetic TWEAK-Fn14 inhibitory peptides at two-fold serial dilutions from 800 µM to 0 µM in running buffer were flown over the chip for 5 min at 35 µL/min. The dissociation phase was monitored for 10 min at the same flow rate and followed by a regeneration step with 10 µL of 18 mM NaOH. Specific binding responses for each channel were obtained by double referencing; subtracting non-specific binding to the blank flow cell plus an internal reference standard, namely buffer injection response. Each sample was run in triplicate. The experimental data were fitted to a 1:1 Langmuir binding model by the BIAevaluation software version 4.1 (GE Healthcare, Uppsala, Sweden).

[3] = individual peptides, BRV5 + TWEAK, mean of replicate columns
[4] = individual peptides, BRV5 + TWEAK, replicate column 1
[5] = individual peptides, BRV5 + TWEAK, replicate column 2
[6] = individual peptides, BRV5 + TWEAK, normalized to NARS2, listed as P30

Substance: 30: DNGGGNTDIYSE [Peptide 30]
- regulation of probe genes by individual peptides ([1]; BRV5 + TWEAK 25 ng/mL, peptides 450 µM): lowest overall expression across all genes
- BIRC2 mRNA expression (normalized to NARS2) [1, 3]: 0.4705
- HSP90B1 mRNA expression (normalized to NARS2) [1, 3]: 1.723
- IL6 mRNA expression (normalized to NARS2) [1, 3]: 0.001837
- JUN mRNA expression (normalized to NARS2) [1, 3]: 0.05309
- MAP4K4 mRNA expression (normalized to NARS2) [1, 3]: 0.1227
- MAPK14 mRNA expression (normalized to NARS2) [1, 3]: 0.1367
- NFKB2 mRNA expression (normalized to NARS2) [1, 3]: 0.02657
- TNFRSF12A mRNA expression (normalized to NARS2) [1, 3]: 0.01074
- TRAF2 mRNA expression (normalized to NARS2) [1, 3]: 0.01042
- BIRC2 mRNA expression (normalized to NARS2) [1, 4]: 0.46
- HSP90B1 mRNA expression (normalized to NARS2) [1, 4]: 1.5246
- IL6 mRNA expression (normalized to NARS2) [1, 4]: 0.001779
- JUN mRNA expression (normalized to NARS2) [1, 4]: 0.05111
- MAP4K4 mRNA expression (normalized to NARS2) [1, 4]: 0.1133
- MAPK14 mRNA expression (normalized to NARS2) [1, 4]: 0.1336
- NFKB2 mRNA expression (normalized to NARS2) [1, 4]: 0.02493
- TNFRSF12A mRNA expression (normalized to NARS2) [1, 4]: 0.00974
- TRAF2 mRNA expression (normalized to NARS2) [1, 4]: 0.009779
- BIRC2 mRNA expression (normalized to NARS2) [1, 5]: 0.481
- HSP90B1 mRNA expression (normalized to NARS2) [1, 5]: 1.9206
- IL6 mRNA expression (normalized to NARS2) [1, 5]: 0.001894
- JUN mRNA expression (normalized to NARS2) [1, 5]: 0.05506
- MAP4K4 mRNA expression (normalized to NARS2) [1, 5]: 0.1321
- MAPK14 mRNA expression (normalized to NARS2) [1, 5]: 0.1398
- NFKB2 mRNA expression (normalized to NARS2) [1, 5]: 0.02821
- TNFRSF12A mRNA expression (normalized to NARS2) [1, 5]: 0.01174
- TRAF2 mRNA expression (normalized to NARS2) [1, 5]: 0.01106
- BIRC2 expression Z-Score [1, 6]: -0.6095
- HSP90B1 expression Z-Score [1, 6]: -0.9208
- IL6 expression Z-Score [1, 6]: -0.0450 and -0.04503
- JUN expression Z-Score [1, 6]: -0.5095
- MAP4K4 expression Z-Score [1, 6]: -1.5551 and -1.555
- MAPK14 expression Z-Score [1, 6]: -1.1124 and -1.112
- NFKB2 expression Z-Score [1, 6]: -1.3232 and -1.323
- TNFRSF12A expression Z-Score [1, 6]: -1.112
- TRAF2 expression Z-Score [1, 6]: -0.4386
- precipitation [2]: precipitated at all concentrations tested

Substance: SYTDVQDS-NH2 [Peptide 49]
- kon (human His6-TWEAK protein): 4.88 M⁻¹ s⁻¹
- Kd (human His6-TWEAK protein): 533 µM

Substance: TTDGSTGDDLQA-NH2 [Peptide 43]
- kon (human His6-TWEAK protein): 20.5 M⁻¹ s⁻¹
- Kd (human His6-TWEAK protein): 173 µM
